ChEMBL document CHEMBL1201862, “PubChem BioAssay data set” (2004)
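Method: 48-hour compound exposure of cells in 96-well plates, five concentrations, linear interpolation of endpoints. At the GI50, growth is halved.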 Activity calls are given as the source filed them. Rule as the data show it: active = GI50 up to about 1.1 µM and inactive = higher.

Assays:
Assay in all cases: NCI anticancer screen, dose series, 48 h
CCRF-CEM = tested on: CCRF-CEM
COLO 205 = tested on: COLO 205
EKVX = tested on: EKVX
HL-60 = tested on: HL-60
HOP-62 = tested on: HOP-62
IGROV-1 = tested on: IGROV-1
KM12 = tested on: KM12
LOX IMVI = tested on: LOX IMVI
M19-MEL = tested on: M19-MEL
MCF7 = tested on: MCF7
MDA-MB-435 = tested on: MDA-MB-435
MOLT-4 = tested on: MOLT-4
Malme-3M = tested on: Malme-3M
NCI-H226 = tested on: NCI-H226
NCI-H460 = tested on: NCI-H460
PC-3 = tested on: PC-3
RPMI-8226 = tested on: RPMI-8226
SF-539 = tested on: SF-539
SNB-75 = tested on: SNB-75
T47D = tested on: T47D

Row | SMILES | GI50 (CCRF-CEM) | GI50 (COLO 205) | GI50 (EKVX) | GI50 (HL-60) | GI50 (HOP-62) | GI50 (IGROV-1) | GI50 (KM12) | GI50 (LOX IMVI) | GI50 (M19-MEL) | GI50 (MCF7) | GI50 (MDA-MB-435) | GI50 (MOLT-4) | GI50 (Malme-3M) | GI50 (NCI-H226) | GI50 (NCI-H460) | GI50 (PC-3) | GI50 (RPMI-8226) | GI50 (SF-539) | GI50 (SNB-75) | GI50 (T47D)
1 | O=C1CSC(/C(=C\c2ccc(Cl)cc2)c2nc3ccccc3[nH]2)=N1 | 27.6 µM (inactive) | 19.1 µM (inactive) | 17 µM (inactive) | 26.5 µM (inactive) | 1.94 µM (inactive) | 10.1 µM (inactive) | 13.2 µM (inactive) | 15.8 µM (inactive) | 15.2 µM (inactive) | 14.6 µM (inactive) | 17.9 µM (inactive) | 51.8 µM (inactive) | 16.7 µM (inactive) | 6.93 µM (inactive) | 13.3 µM (inactive) | 19.5 µM (inactive) | 33.8 µM (inactive) | 0.659 µM (active) | 12.3 µM (inactive) | 13.9 µM (inactive)
2 | Cc1cc(Cl)ccc1NC(=O)CC1SC(NC(=O)c2ccccc2Cl)=NC1=O (stereo unspecified) | 2.86 µM (inactive) |  | > 100 µM (inactive) | 2.19 µM (inactive) |  | 38.2 µM (inactive) |  | 21.9 µM (inactive) | 19.2 µM (inactive) |  |  | 2.89 µM (inactive) | 19.7 µM (inactive) | 25.2 µM (inactive) | > 100 µM (inactive) |  | 15.2 µM (inactive) | 19.2 µM (inactive) | 19.2 µM (inactive) | 
3 | Cc1cn2cc(-c3ccncc3)nc2s1 | > 52.7 µM (inactive) | > 71.8 µM (inactive) | > 100 µM (inactive) | > 19.8 µM (inactive) | > 100 µM (inactive) | > 100 µM (inactive) | > 100 µM (inactive) | > 49.8 µM (inactive) | > 86.7 µM (inactive) |  |  | > 100 µM (inactive) | > 100 µM (inactive) | > 100 µM (inactive) | > 100 µM (inactive) |  | > 47.2 µM (inactive) | > 100 µM (inactive) | > 100 µM (inactive) | 
4 | c1ccc(P(=Nc2ccccc2N=P(c2ccccc2)(c2ccccc2)c2ccccc2)(c2ccccc2)c2ccccc2)cc1 | 1.3 µM (inactive) | 1.65 µM (inactive) | 1.21 µM (inactive) | 1.08 µM (active) | 0.558 µM (active) | 0.498 µM (active) | 0.834 µM (active) | 0.612 µM (active) | 0.818 µM (active) |  |  |  | 0.256 µM (active) | 0.337 µM (active) | 0.528 µM (active) |  | 1.74 µM (inactive) | 1.16 µM (inactive) | 0.371 µM (active) | 
5 | O=C(N/C(=C\c1cc(Cl)ccc1Cl)c1nc2c(O)nc(S)nc2[nH]1)c1ccccc1 | 13.4 µM (inactive) | 37.4 µM (inactive) | 37.8 µM (inactive) | 4.82 µM (inactive) | > 100 µM (inactive) | > 42.4 µM (inactive) | 23.4 µM (inactive) | 22.1 µM (inactive) | 27 µM (inactive) |  |  | 16.1 µM (inactive) | > 90.2 µM (inactive) | > 100 µM (inactive) | 34.5 µM (inactive) |  | 12.6 µM (inactive) | 27.7 µM (inactive) | 34.2 µM (inactive) | 
6 | Clc1ccc(C(c2ccccc2Cl)C(Cl)Cl)cc1 (stereo unspecified) [MITOTANE] | 17.7 µM (inactive) | 17.3 µM (inactive) | 17.3 µM (inactive) | 18.7 µM (inactive) | 18.2 µM (inactive) | 13.9 µM (inactive) | 16 µM (inactive) | 21.3 µM (inactive) | 19.7 µM (inactive) | 19.2 µM (inactive) | 3.08 µM (inactive) | 14.7 µM (inactive) | 14.1 µM (inactive) | 16.5 µM (inactive) | 17.3 µM (inactive) | 3.39 µM (inactive) | 14.5 µM (inactive) | 17.1 µM (inactive) | 15.2 µM (inactive) | 1.64 µM (inactive)
7 | COC(=O)CC1(O)C(=O)OCc2c1cc1n(c2=O)Cc2c-1nc1ccccc1c2OC (stereo unspecified) | < 0.0171 µM (active) | 3.77 µM (inactive) | 11.1 µM (inactive) | 0.0959 µM (active) | 0.0461 µM (active) | 2.94 µM (inactive) | 5.27 µM (inactive) | 0.0993 µM (active) | 1.19 µM (inactive) |  |  | 0.017 µM (active) | 3.3 µM (inactive) | 0.115 µM (active) | 0.0185 µM (active) |  | 0.582 µM (active) | 0.111 µM (active) | 0.232 µM (active) | 
